Experimental data reported in the supplement of paper PMC10307832.

Key:
Experiment in all cases: relative viability (nuclei count vs DMSO), 5 days (fraction); higher = more cells survive
[1] = compound: C1/C(=C\C2=CC=CS2)/C(=O)/C(=C/C3=CC=CS3)/C1 + Cc1nc(NC(=O)N2CCC[C@H]2C(N)=O)sc1-c1ccnc(C(C)(C)C(F)(F)F)c1 [Alpelisib] (partner 2 µM)
How it was run: (§1)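 For relative viability, nuclei counts in treated wells were divided by those in vehicle wells. Lung cancer cell lines had been pin-tool dosed in 1536-well plates the day after seeding and cultured for 5 days, then fixed and stained in one step (final 0.05% Triton X-100, 1% formaldehyde, 1 ug/ml Hoechst) and imaged at 4×. Doses were one drug alone or a fixed anchor-drug dose plus five library-drug doses (not always all listed) in √10 steps, and values are duplicate-plate medians.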

[2] = compound: C1=CC(=CC=C1C2=CC(=C(S2)NC(=O)N)C(=O)N)F [TPCA-1] + Cc1cc(Nc2cc(N3CCN(C)CC3)nc(Sc3ccc(NC(=O)C4CC4)cc3)n2)n[nH]1 [Tozasertib] (partner 0.1 µM)
How it was run: as §1

[3] = compound: C[C@]12O[C@H](C[C@]1(O)CO)n1c3ccccc3c3c4c(c5c6ccccc6n2c5c31)CNC4=O [Lestaurtinib] + CC1(C)CCC(c2ccc(Cl)cc2)=C(CN2CCN(c3ccc(C(=O)NS(=O)(=O)c4ccc(N[C@H](CCN5CCOCC5)CSc5ccccc5)c(S(=O)(=O)C(F)(F)F)c4)cc3)CC2)C1 [Navitoclax] (partner 0.5 µM)
How it was run: as §1

[4] = compound: C[C@]12O[C@H](C[C@]1(O)CO)n1c3ccccc3c3c4c(c5c6ccccc6n2c5c31)CNC4=O [Lestaurtinib] + NC(=O)Nc1cc(-c2cccc(F)c2)sc1C(=O)N[C@H]1CCCNC1 [AZD7762] (partner 0.2 µM)
How it was run: as §1

Row | Cell Line | relative viability ([1]; first compound 0.2 µM) | relative viability ([1]; first compound 0.6325 µM) | relative viability ([1]; first compound 2 µM) | relative viability ([1]; first compound 6.325 µM) | relative viability ([1]; first compound 20 µM) | relative viability ([2]; first compound 0.04 µM) | relative viability ([2]; first compound 0.1265 µM) | relative viability ([2]; first compound 0.4 µM) | relative viability ([2]; first compound 1.265 µM) | relative viability ([2]; first compound 4 µM) | relative viability ([3]; first compound 0.005 µM) | relative viability ([3]; first compound 0.01581 µM) | relative viability ([3]; first compound 0.05 µM) | relative viability ([3]; first compound 0.1581 µM) | relative viability ([3]; first compound 0.5 µM) | relative viability ([4]; first compound 0.005 µM) | relative viability ([4]; first compound 0.01581 µM) | relative viability ([4]; first compound 0.05 µM) | relative viability ([4]; first compound 0.1581 µM) | relative viability ([4]; first compound 0.5 µM)
1 | HOP-62 | 1.01 | 0.741 | 1.09 | 0.764 | 0.93 | 0.368 | 0.367 | 0.392 | 0.292 | 0.27 | 0.979 | 1.07 | 0.657 | 0.916 | 0.988 | 0.56 | 0.657 | 0.323 | 0.609 | 0.313
2 | HCC-366 | 0.502 | 0.393 | 0.378 | 0.345 | 0.421 | 0.107 | 0.135 | 0.0742 | 0.0631 | 0.0314 | 1.1 | 1.11 | 0.977 | 1.56 | 0.581 | 0.315 | 0.305 | 0.339 | 0.447 | 0.556
3 | NCI-H2347 | 1.1 | 1.07 | 0.963 | 0.952 | 1.15 | 0.527 | 0.52 | 0.454 | 0.599 | 0.336 | 0.835 | 0.87 | 0.575 | 0.526 | 0.42 | 0.7 | 0.83 | 0.648 | 0.568 | 0.466
4 | LXF-289 | 1.02 | 1.08 | 1.05 | 0.974 | 1.04 | 0.248 | 0.203 | 0.201 | 0.169 | 0.122 | 0.93 | 0.986 | 0.742 | 0.707 | 0.161 | 1.12 | 1.14 | 0.801 | 0.864 | 0.17
5 | NCI-H1793 | 0.64 | 0.656 | 0.763 | 0.696 | 0.559 | 0.33 | – | 0.307 | 0.235 | 0.165 | 0.504 | 0.745 | 0.393 | 0.334 | 0.232 | 0.406 | 0.485 | 0.357 | 0.422 | 0.303
6 | LU99A | 0.499 | 0.547 | 0.545 | 0.476 | 0.454 | 0.276 | 0.276 | 0.226 | 0.242 | 0.199 | 0.707 | 0.72 | 0.373 | 0.378 | 0.211 | 0.362 | 0.348 | 0.34 | 0.277 | 0.158
7 | PC-14 | 0.95 | 0.898 | 0.889 | 0.676 | 0.995 | 0.587 | 0.55 | 0.58 | 0.585 | 0.28 | 1.09 | 1.07 | 0.765 | 0.863 | 0.607 | 0.336 | 0.57 | 0.362 | 0.248 | 0.146
8 | NCI-H2085 | 1.22 | 1.02 | 1.04 | 0.785 | 0.97 | 0.863 | 0.72 | 0.746 | 0.735 | 0.479 | 1.15 | 1.36 | 1.1 | 1.27 | 0.979 | 0.917 | 0.938 | 0.941 | 0.98 | 0.827
9 | NCI-H2170 | 0.888 | 0.775 | 0.758 | 0.638 | 0.749 | 0.731 | 0.644 | 0.718 | 0.66 | 0.387 | 0.378 | 0.393 | 0.368 | 0.442 | 0.263 | 0.847 | 0.784 | 0.655 | 0.83 | 0.241
10 | HCC-78 | 0.349 | 0.313 | 0.359 | 0.321 | 0.342 | 0.406 | 0.413 | 0.427 | 0.477 | 0.205 | 0.897 | 0.906 | 0.533 | 0.333 | 0.211 | 0.555 | 0.662 | 0.517 | 0.516 | 0.333
11 | NCI-H1395 | 1.1 | 1.04 | 1.17 | 1.02 | 1.08 | 0.906 | 0.69 | 0.766 | 0.657 | 0.61 | 1.38 | 1.28 | 1.06 | 0.912 | 0.413 | 0.385 | 0.405 | 0.407 | 0.384 | 0.325
12 | NCI-H2126 | 0.785 | 0.833 | 0.805 | 0.69 | 0.786 | 0.877 | 0.768 | 0.886 | 0.829 | 0.338 | 0.924 | 0.914 | 0.854 | 0.632 | 0.75 | 1.04 | 1.01 | 0.877 | 0.988 | 0.813
13 | H3255 | 0.759 | 0.553 | 0.661 | 0.66 | 0.704 | 0.612 | 0.6 | 0.623 | 0.58 | 1.03 | 0.44 | 0.437 | 0.327 | 0.279 | 0.182 | 0.961 | 0.945 | 0.866 | 0.879 | 0.543
14 | HCC-15 | 0.926 | 0.934 | 0.823 | 0.845 | 0.871 | 0.413 | 0.438 | 0.338 | 0.276 | 0.15 | 0.786 | 0.883 | 0.668 | 0.653 | 0.467 | 1.25 | 1.36 | 0.937 | 1.18 | 0.188
15 | HCC-44 | 0.751 | 0.856 | 0.813 | 0.668 | 0.799 | 1.07 | 0.937 | 0.889 | – | 0.294 | 0.88 | 1.06 | 0.925 | 1.12 | 0.62 | 0.949 | 1.08 | 1.09 | 1.14 | 0.75
16 | EMC-BAC-2 | 0.743 | 0.75 | 0.694 | 0.655 | 0.696 | 0.251 | 0.306 | 0.302 | 0.498 | 0.25 | 1.25 | 1.22 | 0.891 | 0.656 | 0.346 | 1.07 | 1.12 | 0.842 | 0.441 | 0.346
